Earlier results, collected in US20210388441A1, “PREDICTING CHRONIC ALLOGRAFT INJURY THROUGH ISCHEMIA-INDUCED DNA METHYLATION” (VIB VZW, priority 2017, published 2021).

Tested on: macrophage infiltration in kidneys
Settings: through a decrease of macrophage infiltration in for instance kidneys

For `CC(=O)C(C)CCC(=O)O` (stereo not shown) [ERG240], which inflammation is on record?
The inflammation was “reduced inflammation”.
